In patent US20230337677A1, “ARYL AND PYRIDYL AMIDE PESTICIDES AND COMPOSITIONS THEREOF” (University of Florida Research Foundation, Incorporated, priority 2019, published 2023):

Experiments:
Assay type in all cases: in vivo
[1] = tested on: Anopheles gambiae Akron kdr (Akdr) strain, resistant to pyrethroids; experiment: Topical toxicity (24 hour mortality), An. gambiae Akdr; conditions: for An. gambiae AKDR LD50: topical application, 24 h mortality, female adults, pyrethroid-resistant Akdr strain; for An. gambiae RR (resistance ratio): 24 h LD50 resistant strain (AKDR)/24 h LD50 susceptible strain (G3)
Protocol: (§1) The Aedes aegypti strains Orlando (sensitive) as well as the Puerto Rico (PR, resistant to permethrin) were used. The Anopheles gambiae (G3 sensitive strain, as well as Akron kdr (Akdr) strain, resistant to pyrethroids were also assessed. The larvae were provided by the USDA, Gainesville Fl, and raised in a pan with tap water maintained at 28° C. Larvae were fed a ground liver and yeast mixture, and pupae were placed in emergence cages. Adults were held at 28° C. and provided with cotton balls soaked in 10% sugar water for rearing and for all bioassays.
(§2) Female adults from 3 to 6 days were used for the experiments. The drug was dissolved in ethanol and then applied with a micro-applicator on the thorax, between the legs: 200 nL of drug per female mosquito, with different concentrations of the drug; 10 mosquitos were treated together per concentration per replicate, and put together in a small container with free access to sweet water. Mortality, i.e. no visible movement, was assessed 24 hours after treatment. Every compound was assessed on at least 3 different cohorts of mosquitoes, and the LD50 values and slopes were determined with Probit analysis, corrected with Abbott's formula.

[2] = tested on: Anopheles gambiae G3 sensitive strain; experiment: Topical toxicity (24 hour mortality), An. gambiae G3; conditions: topical application, 24 h mortality, female adults, susceptible strain G3
Protocol: as §1, §2

[3] = tested on: Aedes aegypti strain Orlando (sensitive); experiment: Topical toxicity (24 hour mortality), Ae. aegypti Orlando; conditions: topical application, 24 h mortality, female adults, susceptible Orlando strain
Protocol: as §1, §2

[4] = tested on: Aedes aegypti mosquitoes, insecticide-susceptible Orlando strain; conditions: for 1 h % Repellency, 100 μg/cm^2: screened at 100 μg/cm^2, strain not given; for vapor repellency / mortality, statement in words (Example 8): structure-activity analysis of Table 2
Protocol: The tubes as shown were held horizontally on the bench.
For assessing behavioral repellency (FIG. 1), Aedes aegypti mosquitoes were used from the insecticide-susceptible Orlando strain and the pyrethroid-resistant Puerto Rico strain. Sixteen female mosquitoes were transferred to a glass tube (12.5 cm long, 2.5 cm outer diameter) with the ends covered with netting. Each compound was dissolved in 1 mL of acetone and serial dilutions ranging from 30-0.01 μg/ml were made. Circular filter papers (5 cm^2) were saturated with 50 μL of each concentration and allowed 10 min for solvent evaporation. The filter papers were then placed in clear conical polypropylene caps and fixed to the end of the glass tubes. The netting prevented mosquito contact with the filter paper. The tubes were then aligned with a mark denoting the midline and the proportion of mosquitoes on the chemically treated side was scored for up to 60 min. At the end of the test, the tube was placed in a cage and the ability of the mosquitoes to fly out of the tube was assessed for 30 min. […] This post-test evaluated whether any non-responding mosquitoes (not repelled) resulted from intoxication or disorientation from the test chemical. For assessment of lethality, insects were held for 24 hr under constant exposure in glass tubes having treated filter papers.
Compounds were first screened at 100 μg/cm^2 for repellency and 24 h mortality.

| SMILES | An. gambiae AKDR LD50 [1] [ng/mg] | An. gambiae G3 LD50 [2] [ng/mg] | Ae. aegypti OR LD50 [3] [ng/mg] | 1 h % Repellency, 100 μg/cm^2 ([4]; 1 h) [%] | further results |
| --- | --- | --- | --- | --- | --- |
| O=C(Nc1cc(Br)nc(Br)c1)C(F)(F)F [GMR040] | >100 | >100 | 1223 |  |  |
| CC(=O)Nc1ccc(C(F)(F)F)cc1 [MTFI-3-4A] |  |  |  | 8 |  |
| O=C(Nc1cc(F)nc(F)c1)C(F)(F)C(F)(F)C(F)(F)F [GMR046] | >100 | >100 | 300 |  |  |
| O=C(Nc1c(Cl)c(Cl)nc(Cl)c1Cl)C(F)(F)C(F)(F)C(F)(F)F [GMR074] | 8.6 | 11.00 | 29 |  | An. gambiae RR (resistance ratio) [1]: 0.8 |
| Cc1cc(NC(=O)C(F)(F)C(F)(F)F)cc(C)n1 [GMR049] | >100 | >100 | >3000 |  |  |
| CC(=O)N(C(C)=O)c1ccccc1OC(F)(F)F [GMR169] | >1000 | >1000 |  | 82 |  |
| COC(=O)c1cccc(C(F)(F)F)c1N [MTFI-5-512B] |  |  |  | 42 |  |
| C=CCCCC(=O)Nc1ccccc1C(F)(F)F [MTFI-3-2E] |  |  |  | 76 |  |
| O=C(Nc1cc(Cl)nc(C(F)(F)F)c1)C(F)(F)C(F)(F)F [GMR036] | 10.0 | 13.5 | 25 |  | An. gambiae RR (resistance ratio) [1]: 0.7 |
| CCCCCC(=O)Nc1c(F)c(F)nc(F)c1F [GMR065] | 1225 |  | 1225 |  |  |
| O=C(Nc1ccccn1)C(F)(F)C(F)(F)C(F)(F)F [GMR060] |  |  | 1758 |  |  |
| O=C(Nc1cc(Br)nc(Br)c1)C(F)(F)C(F)(F)F [GMR041] | ~100 | ~100 | 50 |  |  |
| O=C(Nc1cc(Cl)nc(Cl)c1)C(C(F)(F)F)C(F)(F)F [GMR174] |  |  | 500 |  |  |
| O=C(NCC(F)(F)F)c1cc(F)c(F)c(F)c1 [GMR173] |  |  |  | 44 | vapor repellency / mortality, statement in words (Example 8) [4]: some repellency and mortality |
| Cc1cc(NC(=O)C(F)F)cc(C)n1 [GMR047] | >100 | >100 | >3000 |  |  |
| COC(=O)c1cc(C(F)(F)F)ccc1N [MTFI-5-12D] |  |  |  | 84 | vapor repellency / mortality, statement in words (Example 8) [4]: moderate repellency in some instances |
| CC(C)CC(=O)Nc1cc(Cl)nc(Cl)c1 [GMR145] |  |  | 775 |  |  |
| CCCCOC(=O)c1ccccc1O [MTFI-5-14C] |  |  |  |  | knockdown in 1 hr repellency test (XXkd = number of insects incapacitated out of 16 females) ([4]; in vivo): 8 |
| O=C(Nc1ccccc1C(F)(F)F)C(F)(F)F [MTFI-1-4C] |  |  |  | −6 |  |
| Cc1cc(NC(=O)C(F)(F)C(F)(F)C(F)(F)C(F)(F)C(F)(F)F)cc(C)n1 [GMR073] |  |  | >3000 |  |  |
| O=C(Nc1ccc(C(F)(F)F)cc1)c1cc(Cl)cc(Cl)c1 [MTFI-4-NA-1C] |  |  |  | 8 | vapor repellency / mortality, statement in words (Example 8) [4]: poor results |
| O=C(CCl)Nc1cccc(O)c1 [MTFI-5-15A] |  |  |  | 36 |  |
| O=C(Nc1cc(F)nc(F)c1)C(F)(F)C(F)(F)F [GMR045] | >100 | >100 | 302 |  |  |
| O=C1C2=C(CCCC2)C(=O)N1COC(=O)C(F)(F)C(F)(F)C(F)(F)F [GMR096] |  | >100 | 2538 |  |  |
| O=C(Nc1cc(C(F)(F)F)cc(C(F)(F)F)c1)C(F)(F)C(F)(F)C(F)(F)F [MTFI-4-2D] |  |  |  | 12 |  |
| CCC(=O)Nc1ccccc1OC(F)(F)F [GMR170] |  |  |  | 94 | 1 h Repellency EC50, μg/cm^2 ([4]; 1 h, (OR)): 15 μg/cm^2 |
| CCCC(=O)Nc1cccc(OC(F)(F)F)c1 [GMR162] | >1000 | >1000 |  | 50 |  |
| O=C(CCl)Nc1cc(C(F)(F)F)cc(C(F)(F)F)c1 [MTFI-3-1F] |  |  |  | 88 |  |
